These results are taken from BindingDB's records for doi:10.1016/j.bmc.2015.01.060 (University of Florida, 2015).

Assay [1] addresses T1, 5-hydroxytryptamine receptor 2C (Homo sapiens, UniProt P28335).
T1 sequence (P28335 whole entry): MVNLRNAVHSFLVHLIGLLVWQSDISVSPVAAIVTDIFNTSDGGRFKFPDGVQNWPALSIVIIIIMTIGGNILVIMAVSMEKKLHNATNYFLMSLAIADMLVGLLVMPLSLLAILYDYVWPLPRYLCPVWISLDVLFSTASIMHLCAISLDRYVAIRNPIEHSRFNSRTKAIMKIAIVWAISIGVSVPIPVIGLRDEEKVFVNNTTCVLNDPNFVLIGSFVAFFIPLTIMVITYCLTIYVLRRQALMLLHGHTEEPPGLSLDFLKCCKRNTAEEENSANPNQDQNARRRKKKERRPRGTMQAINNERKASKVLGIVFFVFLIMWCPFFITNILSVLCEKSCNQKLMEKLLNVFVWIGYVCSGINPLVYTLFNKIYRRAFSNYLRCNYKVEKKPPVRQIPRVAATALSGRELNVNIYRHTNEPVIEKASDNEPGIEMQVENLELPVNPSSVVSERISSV
Description: Displacement of [3H]Mesulergine from human 5-HT2C-INI receptor expressed in HEK293 cells by scintillation counting analysis.

For assay [2], the target named is 5-hydroxytryptamine receptor 2B (Homo sapiens, UniProt P41595). Description: Displacement of [3H]Mesulergine from human 5-HT2B receptor expressed in HEK293 cells by scintillation counting analysis.
Chain of 5-hydroxytryptamine receptor 2B (P41595 whole entry): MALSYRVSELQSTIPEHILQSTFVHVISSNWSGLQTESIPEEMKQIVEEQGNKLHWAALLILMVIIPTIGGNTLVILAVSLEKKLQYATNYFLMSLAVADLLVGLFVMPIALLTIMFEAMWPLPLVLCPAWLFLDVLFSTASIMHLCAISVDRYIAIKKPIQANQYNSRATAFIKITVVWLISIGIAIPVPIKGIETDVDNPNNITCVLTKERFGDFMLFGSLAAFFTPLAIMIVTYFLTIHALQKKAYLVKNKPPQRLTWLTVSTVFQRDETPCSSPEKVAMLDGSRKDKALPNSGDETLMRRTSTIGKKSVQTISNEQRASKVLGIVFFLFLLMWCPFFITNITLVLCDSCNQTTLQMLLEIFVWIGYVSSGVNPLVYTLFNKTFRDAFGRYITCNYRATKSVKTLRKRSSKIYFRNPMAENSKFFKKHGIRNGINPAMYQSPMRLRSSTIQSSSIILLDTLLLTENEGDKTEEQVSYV

One may read the Ki as a dissociation constant, usually derived from enzyme kinetics or from competition with a known ligand. The low end stands for tighter binding, the high end for weaker binding. Regarding `CN(C)[C@H]1Cc2ccccc2[C@H](c2ccc([N+](=O)[O-])cc2)C1`, the Ki in assay [1] came to 1 µM; in assay [2] it was 4.1 µM.
